Test results from EP2540303A1, “Divalent cation containing compositions and methods for treating and/or preventing enzymatic irritation” (Johnson & Johnson Consumer Companies Inc., priority 2011, dated 2013).
Several values for one entry are separate records, joined by “and”; a condition that tells them apart may be missing. Identical values can stand only once.

Tests used:
trypsin [1] = target: T1, trypsin (Bos taurus, UniProt P00760); details: at low concentrations, i.e., around 0.001 M; cited from earlier work
T1 sequence (P00760 24-246): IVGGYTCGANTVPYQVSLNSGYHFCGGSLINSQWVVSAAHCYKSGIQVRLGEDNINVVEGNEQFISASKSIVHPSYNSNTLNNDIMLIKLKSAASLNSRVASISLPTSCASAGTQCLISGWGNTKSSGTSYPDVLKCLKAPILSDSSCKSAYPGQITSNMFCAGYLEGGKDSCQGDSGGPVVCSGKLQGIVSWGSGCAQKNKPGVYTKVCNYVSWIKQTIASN

trypsin [2] = test: Trypsin inhibition (EnzChek protease assay kit), zinc oxide/acid mixtures and zinc oxide containing formulations; format: biochemical; details: Table 5
Procedure: The objective of the following experiment was to determine whether and to what extent adding an acid to a formulation containing zinc oxide had on inhibition of trypsin activity in an in vitro assay. The inhibition of trypsin-induced cleavage of a fluorescent casein peptide was measured using the EnzChek^TM protease assay kit, following manufacturer's instructions (EnzChek^TM Protease Assay Kits Product Information, Revised; Molecular Probes, Eugene OR). Mixtures of zinc oxide and acid at different concentrations were prepared in lx PBS (pH 7.4) and their pH was recorded as listed in the Tables 5-8. Trypsin working solution (Sigma, St. Louis, MO, unit/mL) was prepared in a portion of the digestion buffer provided in the assay kit (the digestion buffer provided in the assay kit comprises, in total, 260mL of 200nM Tris-HCl, pH7.8, containing 40mM sodium azide). Stock solution of BODIPY FL casein (the trypsin substrate, comprising a casein derivative labeled with a pH-insensitive green fluorescent proten, mg/mL) was prepared by adding 0.2 mL of phosphate buffered saline (PBS) to the substrate vials provided in kit, allowing sufficient time at room temperature for the substrate to dissolve fully (each substrate vial provided in the kit contains 200µg of BODIPY FL casein lyophilized from phosphate-buffered saline (PBS)). The final substrate working solution (10 microgram/mL) was prepared by dilution of 0.2 mL of the stock solution of BODIPY FL with 19.8 mL of digestion buffer (pH 7.8). To detect enzyme activity, 100µL of the BODIPY FL casein working solution was added to 50µL of trypsin working solution (containing 100U of trypsin) and 50 µl of the solution of the required test material (if required). Following incubation of the trypsin, with or without the test materials (50 µl), with the BODIPY fluorescent casein substrate, at room temperature for one hour, fluorescence was measured (excitation 485 nm /emission 530 nm) using a SpectraMax microtiter plate reader (Molecular Devices Corporation, Sunnyvale, CA) and Softmax Pro software (Molecular Devices Corporation). Each experiment was performed in three replicates.
For preparations, samples were diluted in lx PBS at 1:10 ratio and subjected to centrifugation at 13,200 rpm for 1 min using Eppendorf Centrifuge (Model 5415D, Eppendorf AG, Hamburg, Germany) to remove the solid formulation ingredients. The supernatants (50 µl) were used for trypsin inhibitory activity analyses as described above. For preparations, samples were diluted in 10, or 20 or 40 % ethanol and subjected to centrifugation at 13,200 rpm for 1 min using Eppendorf Centrifuge (Model 5415D, Eppendorf AG, Hamburg, Germany) to remove the solid formulation ingredients. The supernatants (50 µl) were used for trypsin inhibition assay. […] The percentage activity is quoted with comparison to results obtained from the assay performed without the addition of a test substrate.
For the above study, the results are an average of three independent experiments, wherein the samples, which were diluted at 1:10 ratio in lx PBS solutions containing 10%, 20% or 40% ethanol, were tested in triplicates.

trypsin [3] = test: Trypsin inhibition (EnzChek protease assay kit), divalent cation salts with and without talc; format: biochemical; details: for % synergistic activity relative to hypothetic additive value: (with talc value minus additive value) divided by additive value; for Salt alone trypsin inhibition activities (%): no talc
Procedure: (§1) The objective of the following experiment was to determine whether and to what extent adding a divalent cation to talc inhibited trypsin activity in an in vitro assay. The inhibition of trypsin-induced cleavage of a fluorescent casein peptide was measured using the EnzChek™ protease assay kit, following manufacturer's instructions (EnzChek™ Protease Assay Kits Product Information, Revised; Molecular Probes, Eugene OR). […] Trypsin working solution (Sigma, St. Louis, MO, unit/mL) was prepared in a portion of the digestion buffer provided in the assay kit (the digestion buffer provided in the assay kit comprises, in total, 260mL of 200nM Tris-HCl, pH7.8, containing 40mM sodium azide). Stock solution of BODIPY FL casein (the trypsin substrate, comprising a casein derivative labeled with a pH-insensitive green fluorescent protein, mg/mL) was prepared by adding 0.2 mL of phosphate buffered saline (PBS) to the substrate vials provided in kit, allowing sufficient time at room temperature for the substrate to dissolve fully (each substrate vial provided in the kit contains 200µg of BODIPY FL casein lyophilized from phosphate-buffered saline (PBS)). The final substrate working solution (10 microgram/mL) was prepared by dilution of 0.2 mL of the stock solution of BODIPY FL with 19.8 mL of digestion buffer (pH 7.8). To detect enzyme activity, 100µL of the BODIPY FL casein working solution was added to 50µL of trypsin working solution (containing 100U of trypsin) and 50µl of the solution of the required test material (if required) . Following incubation of the trypsin, with or without the test materials, with the BODIPY fluorescent casein substrate, at room temperature for one hour, fluorescence was measured (excitation 485 nm /emission 530 nm) using a SpectraMax microtiter plate reader (Molecular Devices Corporation, Sunnyvale, CA) and Softmax Pro software (Molecular Devices Corporation). Each experiment was performed in three replicates. The percentage activity is quoted with comparison to results obtained from the assay performed without the addition of a test substrate.

trypsin [4] = test: Inhibition of trypsin-induced cleavage of fluorescent casein (EnzChek protease assay kit), salts in PBS; format: biochemical; details: acetate monohydrate
Procedure: as §1, with “The” for “The objective of the following experiment was to determine whether and to what extent adding a divalent cation to talc inhibited trypsin activity in an in vitro assay. The”, “Following incubation of the trypsin, with or without the test materials, with the BODIPY fluorescent casein substrate, at room temperature for one hour, fluorescence was measured (excitation 485 nm /emission 530 nm) using a SpectraMax microtiter plate reader (Molecular Devices Corporation, Sunnyvale, CA) and Softmax Pro software (Molecular Devices Corporation). Each experiment was performed in three replicates. The percentage activity is quoted with comparison to results obtained from the assay performed without the addition of a test substrate.” left out

[5] = Table 3, salt alone plus talc alone (8.55%), all at 0.1% (g/mL)
[6] = Table 4, 0.1% MgCl2 and 1% talc
[7] = Table 4, 0.5% MgCl2 and 1% talc

## [Cu+2] [Cu++]
Trypsin [1]
  inhibition of the esterase activity of trypsin: inhibited the esterase activity of trypsin

## [O]=[Zn] [ZnO, zinc oxide]
Trypsin [2]; 0.1% ZnO, 0.01 % acetic acid, pH 7.28
  % Trypsin inhibitory activity: 1.85+/-1.34%
Trypsin [2]; 0.1% ZnO, 0.05% acetic acid, pH 6.03
  % Trypsin inhibitory activity: 49.16+/-1.43%
Trypsin [2]; 0.1% ZnO, No acetic acid, pH 7.61
  % Trypsin inhibitory activity: -2.6+/-2.76%
Trypsin [2]; 1% ZnO, 0.01 % acetic acid, pH 7.85
  % Trypsin inhibitory activity: 15.82+/-1.68%
Trypsin [2]; 1% ZnO, 0.05% acetic acid, pH 6.08
  % Trypsin inhibitory activity: 58.19+/-0.73%
Trypsin [2]; 1% ZnO, No acetic acid, pH 8.07
  % Trypsin inhibitory activity: 5.40 +/- 1.24%
Trypsin [2]; mixtures of zinc oxide and acetic acid
  trypsin inhibitory activity (in words): have trypsin inhibitory activity, which is dose-dependent
Trypsin [2]; zinc oxide without acid
  protease activity (in words): minimal protease activity

## CC(=O)[O-].CC(=O)[O-].O.O.O.O.[Mg+2] [Magnesium acetate tetrahydrate]
Trypsin [3]; Table 3, all at 0.1% (g/mL)
  % synergistic activity relative to hypothetic additive value: 90.09%
Trypsin [3]; Table 3, salt 0.1% (g/mL)
  Salt alone trypsin inhibition activities (%): 0.83%
Trypsin [3]; [5]
  Hypothetically calculated additive value of salt and Talc trypsin inhibition activities (%): 9.38%

## CC(=O)O [acetic acid]
Trypsin [2]; No ZnO, 0.01 % acetic acid, pH 6.84
  % Trypsin inhibitory activity: -11.18+/-2.61%
Trypsin [2]; No ZnO, 0.05% acetic acid, pH 4.75
  % Trypsin inhibitory activity: 25.81+/-2.13%

## [Ca+2].[Cl-].[Cl-] [Calcium chloride]
Trypsin [3]; Table 3, all at 0.1% (g/mL)
  % synergistic activity relative to hypothetic additive value: -0.26%
Trypsin [3]; Table 3, salt 0.1% (g/mL)
  Salt alone trypsin inhibition activities (%): 17.95%
Trypsin [3]; [5]
  Hypothetically calculated additive value of salt and Talc trypsin inhibition activities (%): 26.50%

## [Zn+2] [Zn++]
Trypsin [1]
  inhibition of the esterase activity of trypsin: to a lesser extent

## O.O.O.O.[Cl][Fe][Cl] [Iron (II) chloride tetrahydrate]
Trypsin [3]; Table 3, all at 0.1% (g/mL)
  % synergistic activity relative to hypothetic additive value: -12.35%
Trypsin [3]; Table 3, salt 0.1% (g/mL)
  Salt alone trypsin inhibition activities (%): 65.07%
Trypsin [3]; [5]
  Hypothetically calculated additive value of salt and Talc trypsin inhibition activities (%): 73.62%

## CC(=O)[O-].CC(=O)[O-].O.[Cu+2] [Copper (II) acetate monohydrate]
Trypsin [4]
  % Trypsin inhibitory activity: 66.53% and 95.17%

## [Cl-].[Cl-].[Zn+2] [Zinc chloride]
Trypsin [3]; Table 3, all at 0.1% (g/mL)
  % synergistic activity relative to hypothetic additive value: -13.01%
Trypsin [3]; Table 3, salt 0.1% (g/mL)
  Salt alone trypsin inhibition activities (%): 81.07%
Trypsin [3]; [5]
  Hypothetically calculated additive value of salt and Talc trypsin inhibition activities (%): 89.62%

## CC(=O)[O-].CC(=O)[O-].[Zn+2] [Zinc acetate dihydrate]
Trypsin [3]; Table 3, all at 0.1% (g/mL)
  % synergistic activity relative to hypothetic additive value: -15.70%
Trypsin [3]; Table 3, salt 0.1% (g/mL)
  Salt alone trypsin inhibition activities (%): 62.84%
Trypsin [3]; [5]
  Hypothetically calculated additive value of salt and Talc trypsin inhibition activities (%): 71.39%

## [Ag+] [Ag+]
Trypsin [1]
  inhibition of the esterase activity of trypsin: inhibited the esterase activity of trypsin

## CC(=O)[O-].CC(=O)[O-].O.[Ca+2] [Calcium acetate monohydrate]
Trypsin [3]; Table 3, all at 0.1% (g/mL)
  % synergistic activity relative to hypothetic additive value: 3.10%
Trypsin [3]; Table 3, salt 0.1% (g/mL)
  Salt alone trypsin inhibition activities (%): 15.31%
Trypsin [3]; [5]
  Hypothetically calculated additive value of salt and Talc trypsin inhibition activities (%): 23.86%

## [Hg+2] [Hg++]
Trypsin [1]
  inhibition of the esterase activity of trypsin: inhibited the esterase activity of trypsin

## [Cl-].[Cl-].[Mg+2] [Magnesium chloride]
Trypsin [3]; Table 3, all at 0.1% (g/mL)
  % synergistic activity relative to hypothetic additive value: 50.75%
Trypsin [3]; Table 3, salt 0.1% (g/mL)
  Salt alone trypsin inhibition activities (%): 4.75%
Trypsin [3]; [5]
  Hypothetically calculated additive value of salt and Talc trypsin inhibition activities (%): 13.30%
Trypsin [3]; Table 4, 0.1% MgCl2 (g/mL) with 1% talc
  With 1% Talc trypsin inhibition activities (%): 25.43%
Trypsin [3]; Table 4, 0.1% MgCl2 (g/mL)
  Salt alone trypsin inhibition activities (%): 9.02%
Trypsin [3]; [6]
  % synergistic activity relative to hypothetical additive value: 104.42%
  Hypothetically calculated additive value of salt and Talc trypsin inhibition activities (%): 12.44%
Trypsin [3]; Table 4, 0.5% MgCl2 (g/mL) with 1% talc
  With 1% Talc trypsin inhibition activities (%): 32.84%
Trypsin [3]; Table 4, 0.5% MgCl2 (g/mL)
  Salt alone trypsin inhibition activities (%): 19.51%
Trypsin [3]; [7]
  % synergistic activity relative to hypothetical additive value: 43.22%
  Hypothetically calculated additive value of salt and Talc trypsin inhibition activities (%): 22.93%
Trypsin [3]; Table 4, 1% MgCl2 (g/mL) with 1% talc
  With 1% Talc trypsin inhibition activities (%): 40.42%
Trypsin [3]; Table 4, 1% MgCl2 (g/mL)
  Salt alone trypsin inhibition activities (%): 22.13%
Trypsin [3]; Table 4, 1% MgCl2 and 1% talc
  % synergistic activity relative to hypothetical additive value: 58.20%
  Hypothetically calculated additive value of salt and Talc trypsin inhibition activities (%): 25.55%
Trypsin [3]; combination of talc and magnesium chloride
  trypsin inhibition (in words): synergistic increase in trypsin inhibition
Trypsin [3]; talc or magnesium chloride alone
  trypsin inhibitory activity (in words): moderate to low levels of trypsin inhibitory activity
